# Laboratory results: patent publication US20260048059A1, “USE OF SUBSTITUTED BENZOXAZOLE AND BENZOFURAN COMPOUNDS FOR THE TREATMENT AND PREVENTION OF DISEASES ASSOCIATED WITH CHRONIC FATIGUE, EXHAUSTION AND/OR EXERTIONAL INTOLERANC” (MITODICURE GMBH, priority 2022, published 2026)
# System: isolated rat soleus muscle
# Assay: Ex vivo isolated rat soleus muscle: residual contractile force in high KCl (12.5 mM) buffer
# Conditions: salbutamol 1 μM alone (control group); 30 min in KCl 12.5 mM buffer, relative to last force in initial buffer
# Text: The isolated rat muscle either soleus muscle or extensor digitorum longus muscle is a well-characterized and well-validated model for the study of the function of the Na^+/K^+ ATPase. The isolated rat soleus muscle is particularly appropriate for experiments ex vivo as it is very thin so that there is no need for blood supply. […] In the experimental setting used, the high KCl concentration buffer causes partial depolarization that leads to sodium influx to disturb and to decrease excitability to subsequently reduce muscle force. Stimulation of Na^+/K^+ ATPase lowers intracellular sodium levels towards physiological levels to restore excitability and muscular force during electrical stimulation.
# As the phosphodiesterase isoenzyme subtype 7 (PDE7) is the predominant PDE isoenzyme in skeletal muscle to raise cAMP this ex vivo model is suited for the testing the effect of PDE7 inhibitors and in particular their effect on force generation disturbed by mechanisms that worsen excitability or the energetic situation. […] High level activity of Na^+/K^+ ATPase stimulated by cAMP can counteract the decrease in excitability and the loss of force. […]
# Force measurement: The experimental set-up used for force measurements allowed for the simultaneous recordings from 6 muscles in separate incubation chambers in parallel. Force was recorded and stored with a Notocord HEM data acquisition system. […]
compound,measurement,value
CC(C)(C)NCC(O)c1ccc(O)c(CO)c1 (stereo not shown) [Salbutamol],Mean residual contractile force in % (SEM in %),26.6 (3.7); n = 31%
